Data reported in article PMC10721329, “Quisinostat is a brain-penetrant radiosensitizer in glioblastoma” (JCI Insight, 2023).
Values joined by “and” are separate entries in the source; they are usually repeats but may differ in a detail not shown here. Identical values can stand only once.

Assay: Stability in mouse plasma with esterase inhibitors (BNPP, PMSF, DTNB)
Type: in vitro ADME
Details: 37 C, QST conc 500nM
Protocol: Hydroxamic acid–based compounds have been reported to display poor stability and high plasma clearance due to the presence of arylesterases and carboxylesterases in rodent blood ([34]). Therefore, we measured the stability of QST in mouse plasma and brain to determine whether drug degradation occurred during our sample preparations and equilibrium dialyses for the determination of unbound drug level (performed at 37°C). […] QST degradation was also observed in mouse brain homogenate (Figure 6B). However, perfusion of mice before brain collection prevented rapid drug degradation in the brain matrix. […] Degradation of QST can also be constrained if plasma and brain samples are processed at 4°C (Supplemental Figure 4A). All subsequent sample preparations were therefore performed on ice-cold baths to avoid degradation of QST in our PK analyses. […] The observed stability is probably due to the absence of esterases in human matrices, which are responsible for degradation of QST ([34]). Because we employed QST in several in vitro studies (Figures 1–4), the stability of the molecule was also tested in the cell media used to culture GSCs (neurobasal medium; see Methods).
Stability Study in Mouse Plasma, Mouse Brain, Human Plasma, Human Brain, and Neural […]
The stability of QST was determined in BALB/c mouse plasma, male nude athymic perfused and nonperfused mouse brain homogenate (1:9 w/v of PBS; pH 7.4), human brain (obtained from VRL Eurofins) homogenate (1:4 w/v of PBS; pH 7.4), pooled human plasma (Innovative Research), and neurobasal media. QST stock solutions (1 mM) were prepared in acetonitrile, subsequently diluted in a 40% methanol mixture, and added t o the matrices to make final concentrations of 100 nM or 10 nM. Then 50 or 30 µL of either plasma or brain homogenate containing QST were aliquoted into 1.5-mL microcentrifuge tubes (Eppendorf) and were incubated at either 4 °C or 37 °C for 0, 2, 4, 6, 12, or 24 hours (n = 3 at each time point).
The stability of QST in mouse plasma was also tested at 0, 2, 8, 16, or 24 hours (n = 3 at each time point) in the presence of esterase inhibitors: 0.25 mM BNPP, 1mM dithiobis(2-nitrobenzoic acid) (DTNB), or 1.25 mM phenylmethylsulfonyl fluoride (PMSF). Plasma and brain homogenate samples were stored at −80 °C until LC-MS/MS analysis. […]
Supplemental Figure 4. Stability of QST in mouse plasma is improved upon addition of esterase inhibitors. (A) Stability of QST (100 nM) in mouse plasma and mouse brain homogenate when sample preparation is performed at 4 °C. (B) Stability of QST (500 nM) in mouse plasma spiked with 3 different esterase inhibitors: 0.25 mM bis(p-nitrophenyl) phosphate (BNPP), 1.25 mM phenylmethylsulfonyl fluoride (PMSF), and 1 mM dithiobis(2-nitrobenzoic acid) (DTNB) over the course of 24 hours at 37 °C. (C) Stability of QST (10 nM and 100 nM) in neurobasal cell culture medium over the course of 24 hours at 37 °C.

With `Cn1cc(CNCC2CCN(c3ncc(C(=O)NO)cn3)CC2)c2ccccc21` [QST, quisinostat] the “%stability” value (mouse plasma with 0.25mM BNPP, time 0) was 107.9% and 91.2% and 100.9%, the “%stability” value (mouse plasma with 0.25mM BNPP, time 0, mean) was 100.0% and the “%stability” value (mouse plasma with 0.25mM BNPP, time 2) was 64.6% and 83.0% and 82.7%. For the same compound, the “%stability” value (mouse plasma with 0.25mM BNPP, time 2, mean) was 76.8%, the “%stability” value (mouse plasma with 0.25mM BNPP, time 8) was 61.2% and 65.8% and 67.9% and the “%stability” value (mouse plasma with 0.25mM BNPP, time 8, mean) was 65.0%. For the same compound, the “%stability” value (mouse plasma with 0.25mM BNPP, time 16) was 53.0% and 52.9% and 53.7%, the “%stability” value (mouse plasma with 0.25mM BNPP, time 16, mean) was 53.2% and the “%stability” value (mouse plasma with 0.25mM BNPP, time 24) was 47.9% and 55.7% and 51.9%. The “%stability” value (mouse plasma with 0.25mM BNPP, time 24, mean) was 51.8%, the “%stability” value (mouse plasma with 1mM DTNB, time 0) was 107.9% and 91.2% and 100.9% and the “%stability” value (mouse plasma with 1mM DTNB, time 0, mean) was 100.0%. For the same compound, the “%stability” value (mouse plasma with 1mM DTNB, time 2) was 20.7% and 19.1% and 20.9%, the “%stability” value (mouse plasma with 1mM DTNB, time 2, mean) was 20.2% and the “%stability” value (mouse plasma with 1mM DTNB, time 8) was 0.277% and 0.7%. For the same compound, the “%stability” value (mouse plasma with 1mM DTNB, time 8, mean) was 0.5%, the “%stability” value (mouse plasma with 1mM DTNB, time 16) was 0.6% and 0.5% and the “%stability” value (mouse plasma with 1mM DTNB, time 16, mean) was 0.545%. For the same compound, the “%stability” value (mouse plasma with 1mM DTNB, time 24) was 0.7% and 0.6% and 0.25%, the “%stability” value (mouse plasma with 1mM DTNB, time 24, mean) was 0.5% and the “%stability” value (mouse plasma with 1.25mM PMFS, time 0) was 107.9% and 91.2% and 100.9%. For the same compound, the “%stability” value (mouse plasma with 1.25mM PMFS, time 0, mean) was 100.0%, the “%stability” value (mouse plasma with 1.25mM PMFS, time 2) was 61.9% and 64.2% and 59.2% and the “%stability” value (mouse plasma with 1.25mM PMFS, time 2, mean) was 61.8%. For the same compound, the “%stability” value (mouse plasma with 1.25mM PMFS, time 8) was 26.3% and 24.6% and 23.5%, the “%stability” value (mouse plasma with 1.25mM PMFS, time 8, mean) was 24.8% and the “%stability” value (mouse plasma with 1.25mM PMFS, time 16) was 6.1% and 5.9% and 7.1%. The “%stability” value (mouse plasma with 1.25mM PMFS, time 16, mean) was 6.4%, the “%stability” value (mouse plasma with 1.25mM PMFS, time 24) was 4.3% and 3.8% and the “%stability” value (mouse plasma with 1.25mM PMFS, time 24, mean) was 4.0%.
